# Results taken from patent US6979447B2, “Immunomodulation and effect on cell processes relating to serotonin family receptors” (Philadelphia Health and Education Corporation, priority 2001, dated 2005).
# Legend:
# human lymphocytes [1] = experiment: Human mitogenic (ConA) stimulation, 3H-thymidine incorporation; type: cell-based; conditions: harvested 72 hours
# Experimental: Blood from healthy volunteers was drawn using venipuncture, using Vacutainer collection sets and heparinized collection vials. The blood was diluted 1:1 using HBSS to a total volume of 30 ml in 50 ml conical tubes (Fisher Scientific, Co., Pittsburgh, Pa.). […] Cells from the buffy coats were collected and the residual Histopaque was washed away using repeated centrifugations in HBSS. After washes, cells were resuspended at 5 million cells per ml in RPMI, supplemented with 2% FBS. To remove adherent cells, the suspension was plated onto a 6 well flat-bottom plate (Corning Costar), 3 ml/well, and incubated for 2 hours at 37° C., 5% CO2. Non-adherent cells were harvested after this incubation, were counted and resuspended in RPMI supplemented with 10% human serum (Sigma).
# All drugs were pre-plated before the cell suspension was added onto each well of a 96-well round-bottom plate. All experimental conditions were assayed in at least triplicate. Cells suspended in RPMI supplemented with 10% human serum were plated at 100,000 cells per well to a final volume of 200 μl. […] Control samples received no ConA stimulation. The plates were incubated at 37° C. and 5% CO2. One microCurie of tritiated thymidine was added to each well after 60 hours, and the plates were harvested 12 hours later.
# human lymphocytes [2] = experiment: Human mixed lymphocyte reaction (allogeneic stimulation); type: cell-based; conditions: harvested 120 hours
# From the text: Blood from two healthy, non-related, donors was taken as described above. Peripheral blood mononuclear cells were isolated as described previously elsewhere. The adherent cells were separated from the suspension cells as described previously for both donors. Suspension cells from both donors (donors A and B) were used as responders. The remaining adherent cells from each of the donors were used as stimulators against a different donor (suspension A against adherent B and adherent A against suspension B). The stimulator cells were irradiated at 35 Gy. Drugs were pre-plated onto 96 well, U-bottom plates in triplicate. 200,000 “stimulator” cells in RPMI supplemented with 10% human serum were then plated in each well. 200,000 “responder” cells in the same medium were then plated over stimulators to a final volume of 200 μl/well. Background controls received either no stimulator cells, or no responder cells. The plates were incubated at 37° C. and 5% CO2. 1 μCi of tritiated thymidine was added to each well after 4.5 days, and the plates were harvested 12 hours later.
# [3] = test system: RPMI 8226 multiple myeloma cells; experiment: RPMI 8226 cell proliferation / viability (trypan blue, MTT, 3H-thymidine); type: cell-based, human; conditions: low dose-titration, FIGS. 23, 24 and 25
# Experimental: The human plasmacytoma (multiple myeloma) cell line, RPMI 8226 (American Type Culture Collection, Manassas, Va.), was cultured in RPMI 1640 supplemented with 10 mM HEPES, 1 mM sodium pyruvate, 4.5 g/L glucose, 1.5 g/L bicarbonate and 20% FBS (non-heat inactivated).
# Cell proliferation was assayed by three methods—Trypan Blue Exclusion was used to quantify the number of viable cells in culture; 3-(4,5-dimethylthiazol-2-yl)-2,5-diphenyl tetrazolium bromide (MTT) reduction was used to assay mitochondrial activity (and thus cell viability); and ^3H-Thymidine uptake was employed to assay for active DNA synthesis.
# The following 5-HT receptor modulating compounds were tested for their effects on RPMI 8226 cells in vitro cultured at the described densities and across the indicated concentration ranges.
# RPMI-8226 cells = experiment: Hematoxylin-eosin / bis-benzamide staining of RPMI-8226 cytospins; type: cell-based, human
# Experimental: 2.0×10^5 RPMI-8226 cells were cultured, in 6-well culture plates, in the presence of the indicated drug concentrations, in a total of 5 mL RPMI-1640 supplemented with 10% FBS. Each well was harvested in its entirety and divided into two identical samples for cytospins.
# 1.0×10^5 RPMI-8226 cells from each treatment group were loaded into Cyto-funnels and centrifuged at 500 rpm for 4 minutes with medium acceleration. Slides were then fixed through graded methanol in PBS (100%, 5 minutes; 80%, 5 minutes; 50%, 5 minutes), washed for 5 minutes in PBS and stored in PBS at 4° C. until stained.
# Cytospun slides were stained with Hematoxylin and Eosin, followed by the nuclear stain, bis-benzamide, rinsed and mounted according to standard staining protocols. Slides were visualized under both brightfield and fluorescent light to generate matched images of the same slide field (see, e.g., FIGS. 28 and 29).
# cells = experiment: Cell morphology change on inhibition of serotonergic signalling; type: cell-based; conditions: after 24 hours of treatment, FIG. 30
# Experimental: Briefly, cells were incubated with a 5-HTR antagonist (e.g., a selective type 1B inhibitor SD 216641) and the effects of treatment were assessed after 24 hours. […] For instance, detection of cell changes can be assessed using optical instruments (electron and light microscopy, as well as fluorescence activated cell sorting, and the like), or any other device that assesses and detects changes in cell size, density, morphology, and the like. Such devices are well known in the art and are not recounted here.
# human lymphocytes [4] = experiment: Viable cell counts (trypan blue) during ConA stimulation of human lymphocytes; type: cell-based; conditions: ConA 10 μg/ml, manual trypan blue counts, FIG. 11
# Experimental: FIG. 11 is a diagram depicting the effect of a 5HT type 1 receptor antagonist and a 5HT type 2 receptor antagonist on the cell numbers occurring during the mitogenic stimulation of human lymphocyte activation. The cells were stimulated with 10 μg/ml ConA. The cells were repurified on a Ficoll gradient prior to addition of the inhibitor. Trypan blue exclusion was used to count the viable cells.
# To further assess the effects of propanolol (a general 5-HTR 1 antagonist) and risperidone (a general 5-HTR 2 antagonist) on the mitogenically stimulated lymphocyte culture, the number of viable cells were manually counted as the assay progressed. If the cells were not stimulated, there was no detectable change in the number of viable cells. When the cells were stimulated with ConA, a small lag period was observed and the beginning of the growth phase compared to the stimulation response curve observed in the absence of the inhibitor. […] Apparently, there is no decrease or increase compared with the starting cell numbers. It is unclear whether or not this is due too anergy, an inability to initiate the activation pathway, or both. […] Thus, based on the data presented here, the classes of antagonists that inhibit the type 2 serotonin receptors appear to be rate limiting for the lymphocyte activation processes.
# [5] = test system: allogeneic CTL response to P815 cells; experiment: Murine allograft model, CTL killing of P815 target cells by splenocytes; type: in vivo, C57BL/6J mice; conditions: tail vein bolus 200 μg/injection on days 6 and 8, sacrificed day 14, FIG. 13
# Experimental: The in vivo validation screen used was an art-recognized murine allogeneic rejection model as described in Zhan et al., 2000. For this assay, a complete MHC miss-match system was employed wherein 5×10^6 P815 cells ([H-2^d] DBA/2 mastocytoma) were injected into the peritoneal cavity of C57BL/6J (H-2^b) mice on day 0 of the experiment. These mice typically generate a strong cytotoxic T lymphocyte (CTL) reaction in response to P815 cells. Following the initial P815 cell inoculation, the mice were allowed to develop a CTL response (this usually takes about 10-14 days). […] Mice were then sacrificed on day 14 of the experiment as indicated in the figures; and the allogeneic CTL response was assayed as described previously (Tretiakova et al., 2000, Nature Biotechnology 18:984-988). The primary spleen cells from the treated and untreated animals were used in the direct CTL readout. Freshly obtained primary spleen cells were incubated with the [^3H] labeled target cells (P815 cells) at 100:1, 50:1, 25:1, and 12.5:1 ratios for 3.5 hours at 37° C. and harvested using a PHD harvester. The percentage of specific killing was determined using the formula % kill=(S−E)/S, where S is the amount of the DNA retained by the target cells in the absence of the effector cells and E is the amount of retained DNA in the presence of the effector cells (expressed in counts per minute; cpm).
# This is an art-recognized model of allograft […] rejection based on that described by […]. (2000). In this model, there is a complete MHC mismatch between the P815 cells (H-2^d) and the C57BL6 mouse (H-2^b), thus ensuring an aggressive immune response. The data disclosed in FIG. 13, depicts results of experiments that included 6 treatment groups, each group consisting of three mice. Each mouse received 5×10^6 P815 cells injected into the peritoneal cavity on day 0 of the study. The first group was an untreated control group, which was used to establish the baseline response of the mice against the allogeneic stimulus. These mice, without any further treatments, were sacrificed, as were the other treatment groups, on day 14 of the study and their splenocytes assayed for target-specific killing of the P815 cells.
# The average kill observed for the untreated group was about 45% at an effector to target ratio of 100:1. […] The timing of the drug administration was selected to ensure that the T cells were fully activated prior to the drug treatment. The third group was treated with propanolol, a 5HT-1 antagonist. All of the 5HT receptor antagonist-treated groups were treated as described for the risperidone-treated group. The fourth group was treated chronically with CyclosporinA. The Cyclosporin A was administered ip at a dosage of 100 μg/injection starting two days prior to the onset of the study, i.e., at day-2, and the injections were continued on a daily basis for the duration of the study.
# Finally, studies conducted in vivo using the CD8-dependent allograft rejection model, in which P815 cells (a rapidly growing cell line taken from a mastocytoma in a DBA mouse), were expanded and used to create a robust rejection response in a C57BL6 mouse. In this study the mice received 5×10^6 P815 cells injected into their peritoneal cavity on day 0 of the study. The first group was an untreated control group (naïve animals), used to acquire the baseline response of the mice against the allogeneic stimulus. The positive controls were treated with the allogeneic cells without any further treatments. These animals were used to assess the induced allogeneic response against the P815 cells.
# All treatment groups were sacrificed on day 14 of the study and their splenocytes assayed for target-specific killing of the P815 cells (the averaged overall kill observed for the positive control group was about 45% at an effector to target ratio of 100:1). The serotonin-specific compounds were administered via tail vein injection (300 μg/injection) on days 5 and 7 of the study. […]
Structure (SMILES),"effect on activation / proliferative response (human lymphocytes [1]; ConA 5 μg/ml, FIGS. 7A, 8A, 9A)","IC50 (human lymphocytes [1]; ConA (5 μg/ml) stimulation of human lymphocytes, FIG. 7A, read-out: apparent IC50)","effect on activation / proliferative response (human lymphocytes [2]; allogeneic stimulation, FIGS. 7B, 8B, 9B)","IC50 (human lymphocytes [2]; allogeneic stimuli (mixed lymphocyte reaction), FIG. 7B, read-out: apparent IC50)",effect on growth of RPMI-8226 cells [3],"chromatin / nuclear morphology (RPMI-8226 cells; 50 μM, 9 hour treatment, FIGS. 28, 29)",induction of programmed cell death (RPMI-8226 cells; FIGS. 28 and 29),change in cell morphology (cells),effect on number of viable cells (human lymphocytes [4]),effect on allograft (CTL) response [5]
COc1ccc(NC(=O)c2ccc(-c3ccc(-c4noc(C)n4)cc3C)cc2)cc1OCCN(C)C [SB 216641],complete inhibition of the activation response,~200 nM,complete inhibition of the activation response,~50 nM,completely inhibited the growth of the cancer cells,Extensive chromatin condensation and nuclear fragmentation,"induced programmed cell death comparable to that induced by the topoisomerase I inhibitor, camptothecin",an increase in cell size,,
Cc1nc2n(c(=O)c1CCN1CCC(c3noc4cc(F)ccc34)CC1)CCCC2 [risperidone],,,,,,,,,"caused a brief cell increase, followed by the elimination of the cells in culture",inhibited the allograft response to varying degrees
CC(C)NC[C@H](O)COc1cccc2ccccc12 (racemic) [propanolol],,,,,,,,,prevents the cell from growing,did not protect the mice from the allograft rejection response
